The test system of series [1] is Gallesekretion narkotisierter Ratten. Briefly: Bile secretion (choleresis) of anaesthetised rats after intraduodenal administration. The format is in vivo, Ratte. As to conditions: for ED50: Rattus norvegicus, 0.5 h, Ratte i.d., dose that raises bile secretion (fluid volume, 30-min fraction) by maximally 50 %; for TQ [LD50/ED50]: LD50 (Maus, i.p.) / ED50 Gallesekretion (Ratte i.d.), for Lfd.Nr. 1 the cited p.o. LD50. The text has this:
In Tabelle II werden Untersuchungen der Gallesekretion (Cholerese) von narkotisierten Ratten nach intraduodenaler Applikation (ED50) und die letale Wirkung an der Maus (LD50) nach intraperitonealer Applikation von Vertretern der erfindungsgemäßen Verbindungen sowie der therapeutische Quotient (TQ = LD50/ED50) wiedergegeben.
(§1) Einfluß auf die Pankreas- und Gallesekretion der narkotisierten Ratte Versuchsdurchführung:
(§2) Männliche Sprague-Dawley-Ratten (250 - 300 ^g Körpergewicht) werden mit 1,2 g/kg Urethan i.m. narkotisiert. Dann wird die Bauchhöhle medial geöffnet, der Ductus choledochus kurz oberhalb seiner Mündung in das Duodenum sowie nahe der Leberpforte ligiert, beide Gangabschnitte werden leberwärts katheterisiert.
(§3) Da bei der Ratte alle Pankreaskanäle in den mittleren Abschnitt des Ductus choledochus munden,lassen sich auf diese Weise aus dem distalen (ligierten) Gangabschnitt das Pankreassekret und aus dem proximalen Teil des Ductus choledochus die Galle getrennt ableiten.
(§4) Die sezernierten Mengen an Pankreas- und Gallensaft werden in 30 min. Abständen während 2 Stunden vor bis 3 Stunden nach der intraduodenalen ([…]) Verabreichung der zu prüfenden Verbindungen (verabreichtes Flüssigkeitsvolumen 5 ml/kg) gemessen.
(§5) Die Körpertemperatur der Tiere wird mittels Heizkissen und Bestrahlung auf 36 - 38°C gehalten; die Temperaturkontrolle erfolgt rectal.
(§6) Auswertung: • Die Flüssigkeitsvolumina der 30-min.-Fraktionen nach der Substanzgabe werden jeweils auf die vor der Substanzapplikation ausgeschiedene Galle- bzw. Pankreassaftmenge (= 100 %, Mittelwert aus den beiden letzten Messungen) bezogen. Die maximale prozentuale Steigerung der Pankreas- bzw. Gallesekretion wird in Abhängigkeit von der Dosis dargestellt und daraus die ED50 durch Interpolation ermittelt.

In a further series the test system is Maus. Briefly: Acute toxicity in mice, intraperitoneal. The format is in vivo. As to conditions: i.p., female NMRI mice, 14 days observation. The text has this: (§7) Die Toxizitätsuntersuchungen werden an weiblichen NMRI-Mäusen (Körpergewicht 22 - 26 g) durchgeführt. Die Tiere (5 Tiere pro Dosis) erhalten Futter und Wasser ad libitum. Verschiedene Dosierungen der Substanzen werden intraperitoneal verabreicht. Die Beobachtungsdauer beträgt 14 Tage. Die DL50, d.h. die Dosis, bei der 50 % der Tiere sterben, wird aus der Dosiswirkungskurve ermittelt.

The test system of series [2] is Pankreassekretion narkotisierter Ratten. The series is described as follows: Pancreatic secretion of anaesthetised rats after intraduodenal administration. In kind it is in vivo, Ratte. As to conditions: for ED50: Rattus norvegicus, 0.5 h, Ratte, i.d., dose that raises pancreatic secretion (fluid volume, 30-min fraction) by maximally 50 %; for TQ [LD50/ED50]: LD50 (Maus, i.p.) / ED50 Pankreassekretion (Ratte, i.d.), for Lfd.Nr. 1 the cited p.o. LD50.
Description: In Tabelle I werden Untersuchungen der Pankreassekretion von narkotisierten Ratten nach intraduodenaler Applikation (ED50) und die letale Wirkung an der Maus (LD50) nach intraperitonealer Applikation von Vertretern der erfindungsgemäßen Verbindungen sowie der therapeutische Quotient (^TQ = LD50/ED50) wiedergegeben.
as §1, §2, §3, §4, §5, §6

Series [3] is described as follows: Acute toxicity in mice, intraperitoneal. The format is in vivo. As to conditions: mouse, in vivo, ip; Maus, i.p.; female NMRI mice, 14 days observation; read-out: Toxizität LD50.
Description: as §7

Series [4] concerns CCl4-lebergeschädigte Ratten. Briefly: Antihepatotoxic effect: hexobarbital sleeping time of rats after CCl4 liver damage. The format is in vivo, Ratte. As to conditions: for TQ [LD50/ED50]: LD50 (Maus i.p.) / ED50 antihepatotoxischer Effekt (Ratte, p.o.), for Lfd.Nr. 1 the cited p.o. LD50; for ED50: Rattus norvegicus, po, Ratte, p.o., dose that shortens hexobarbital narcosis of CCl4-liver-damaged rats by 50 %, sodium salts in aqueous solution, given 1 h before CCl4, read-out: Antihepatotoxischer Effekt ED50. The text has this:
In Tabelle III werden Untersuchungen der antihepatotoxischen Wirkung (ED50) erfindungsgemäßer Verbindungen nach oraler Applikation an wachen Ratten und die letale Wirkung nach intraperitonealer Applikation an der Maus (LD50) sowie der therapeutische Quotient (TQ = LD50/ED50) wiedergegeben.
Prüfung auf antihepatotoxische Wirkung
Einfluß auf die Hexobarbitalschlafdauer der Ratte nach CCl4-Leberschädi- gung
Versuchsdurchführung: • In Anlehnung an VOGEL et al. [Arzneim.Forsch. 25(1975)82] wird bei nüchternen weiblichen Sprague-Dawley-Ratten (190 *10 g Körpergewicht, 10 Tiere/Dosis pro Versuchsansatz) durch orale Verabreichung von Tetrachlorkohlenstoff ([…] CC14 in 2,5 ml/kg Olivenöl) ein Leberzellenschaden erzeugt, dessen Ausmaß an der Verlängerung der Hexobarbitalnatrium-Schlafdauer (50mg/ml/kg i.v.;Schwanzvene, Injektionsdauer 45 - 60 sec.) 47 Stunden nach der CC14-Gabe bestimmt wird. Die zu prüfenden Verbindungen werden eine Stunde vor der CC14-Gabe oral in einem Flüssigkeitsvolumen von 10 ml/kg verabreicht.
Auswertung: • Der antihepatotoxische Effekt der zu prüfenden Verbindungen (NatriumSalze in wäßriger Lösung) wird an der prozentualen Verkürzung der durch die CC14-Leberzellschädigung bedingten Schlafdauerverlängerung bei den behandelten Gruppen gegenüber der Schlafdauerverlängerung der CC14-Kontrollgruppe (= 100 %) gemessen. Die ED50 wurde durch Interpolation aus der Dosis-Wirkungskurve ermittelt.

As a reminder, the ED50 is the midpoint of the dose-response relation. In series [1] (intraduodenal), `C#CC1(N(CCCC(=O)O)C(=O)c2ccc(Cl)cc2)CCCCC1` [Beispiel 5] registered an ED50 of 6 mg/kg.

Take `CC(C)(C)CC(C)(C)N(CCCC(=O)O)C(=O)c1ccc(F)cc1` [Beispiel 16]: the “Toxizität LD50” value in the series on Maus came out at 400 mg/kg. Also, in series [2] (intraduodenal), the ED50 is around 10 mg/kg.

As a reminder, the LD50 is the dose expected to kill half of the subjects tested. For `CC(C)(C)N(CCCC(=O)O)C(=O)c1ccc(Cl)cc1` [Lfd. Nr. 2, N-p-Chlorbenzoyl-4-(tert.-butylamino)-buttersäure], in series [1], the “TQ [LD50/ED50]” value is on record as above 40 and the ED50 was found to be 25 mg/kg. Moreover, the LD50 at 336 h in series [3] is above 1000 mg/kg. Besides, in series [4], the “TQ [LD50/ED50]” value is reported as above 10 and the ED50 is 100 mg/kg.

Regarding `C#CC(C)(C)N(CCCC(=O)O)C(=O)c1ccc(Cl)cc1` [Lfd. Nr. 3, N-p-Chlorbenzoyl-4-[(2-methyl-3-butin-2-yl)-amino]-buttersäure], the LD50 at 336 h in series [3] is above 1000 mg/kg. Also, in series [2], the “TQ [LD50/ED50]” value is “»100” and the 50% effect level (ED50) was put at a dose of 10 mg/kg.

In the case of `C#CC(CC)(CC)N(CCCC(=O)O)C(=O)c1ccc(Cl)cc1` [Lfd. Nr. 4, N-p-Chlorbenzoyl-4-[(3-ethyl-1-pentin-3-yl)-amino]-buttersäure], the results for the “TQ [LD50/ED50]” value in series [1], in series [2] and in series [4] were 43, 156 and 7,8, respectively. For the same compound, the ED50 in series [1] came to 18 mg/kg; in series [2] it was 5 mg/kg; in series [4], 100 mg/kg. Besides, the LD50 at 336 h in series [3] was determined as 780 mg/kg.

Take `O=C(O)CCCN(C(=O)c1ccc(Cl)cc1)C12CC3CC(CC(C3)C1)C2` [Lfd. Nr. 6, N-p-Chlorbenzoyl-4-(1-adamantyl)-aminobuttersäure]: the “TQ [LD50/ED50]” value in series [1] is recorded as 220; in series [2] it was around 220; in series [4], 110. In addition, the median effective dose (ED50) in series [1] was 5 mg/kg; in series [2], around 5 mg/kg; in series [4], 10 mg/kg. In addition, the LD50 at 336 h in series [3] was 1100 mg/kg.

For `CC(C)(C)CC(C)(C)N(CCCC(=O)O)C(=O)c1ccc(Cl)cc1` [Lfd. Nr. 7, N-p-Chlorbenzoyl-4-[(1.1.3.3-tetramethyl-butyl)-amino]-butter-säure], the figures for the “TQ [LD50/ED50]” value in series [1], in series [2] (listed as 1) and in series [4] were 27, 31 and < 3,6, respectively. Further, the ED50 is 40 mg/kg in series [1], 35 mg/kg in series [2] and above 300 mg/kg in series [4].

Take `C#CC1(N(CCCC(=O)O)C(C)=O)CCCCC1` [Lfd. Nr. 8, N-Acetyl-4-[(1-ethinyl-cyclohexyl-1)-amino]-buttersäure]: in series [1], the “TQ [LD50/ED50]” value is listed as 32 and the 50% effect level (ED50) was put at a dose of 6 mg/kg. Moreover, in series [3], the LD50 at 336 h came to 190 mg/kg.

As for `CCC(C)(C)N(CCCC(=O)O)C(=O)c1ccc(Cl)cc1Cl` [Lfd. Nr. 11, N-2,4-Dichlorbenzoyl-4-[(1.1-dimethyl-propyl)-amino]-butter-säure], the LD50 at 336 h in series [3] was 200 mg/kg. In series [2], the “TQ [LD50/ED50]” value is given as 200 and the ED50 stood at 1 mg/kg.

As for `O=C(O)CCCN(Cc1ccccc1)C(=O)c1ccc(Cl)cc1` [Lfd. Nr. 15, N-p-Chlorbenzoyl-4-benzylamino-buttersäure], the LD50 at 336 h in series [3] was 150 mg/kg. In series [2], the “TQ [LD50/ED50]” value came to 60 and the ED50 turned out to be 2.5 mg/kg. Also, in series [4], the “TQ [LD50/ED50]” value is listed as 18,8 and the ED50 turned out to be 8 mg/kg.

For the compound `O=C(O)CCCN(C(=O)c1ccc(Cl)cc1)C1CCCCCCC1` [Lfd. Nr. 18, N-p-Chlorbenzoyl-4-cyclooctylamino-buttersäure], the LD50 at 336 h in series [3] was determined as 350 mg/kg. Also, in series [2], the “TQ [LD50/ED50]” value came to 233 and the ED50 was 1.5 mg/kg.

The values are drawn from patent publication EP0002836A1, “Acylhydrocarbylaminoalcanecarboxylic acids, their preparation and their use, and pharmaceutical compositions containing them” (Byk Gulden Lomberg Chemische Fabrik GmbH, priority 1977, dated 1979).
